According to patent US20050209278A1, “Piperidinyl- and piperazinyl-sulfonylmethyl hydroxamic acids and their use as protease inhibitors” (priority 2002, published 2005):
pIC50: −log10 of the molar value. Structures can show the parent of a compound that is named as a salt.

What was measured:
MMP-14 = target: T1, MMP-14 (Homo sapiens, UniProt P50281); test: In vitro MMP inhibition, IC50 determination (fluorogenic substrate I); format: biochemical; details: values in parenthesis; 4 μM substrate I; room temperature
T1 construct: The catalytic domain enzyme was expressed in E. coli inclusion bodies, solubilized in urea; made in house
Procedure: Several hydroxamic acids and salts thereof were analyzed in in vitro assays to determine their ability to inhibit the MMP cleavage of peptide substrates. […] and IC50 constants were calculated from the assayed hydroxamic acid-MMP interactions. Human recombinant MMP-1, MMP-2, MMP-9, MMP-13, and MMP-14 were used in this assay. All enzymes were prepared in Assignee's laboratories following usual laboratory procedures. Protocols for the preparation and use of these enzymes are available in the scientific literature. See, e.g., Enzyme Nomenclature (Academic Press, San Diego, Calif., 1992) (and the citations therein). See also, Freije et al., “Molecular cloning and expression of collagenase-3, a novel human matrix metalloproteinase produced by breast carcinomas,” J Biol. Chem., 269(24), 16766-16773 (1994). The MMP-14 full length cDNA was provided by Dr. Gregory Goldberg of Washington University (St. Louis, Mo.). The catalytic domain enzyme was expressed in E. coli inclusion bodies, solubilized in urea, purified on a preparative […] reverse phase HPLC column, and then refolded in the presence of zinc acetate and purified for use. All MMPs were activated using 4-aminophenylmercuric acetate (“APMA”, Sigma Chemical, St. Louis, Mo.) or trypsin. MMP-9 also was activated using human recombinant MMP-3 (purified in Assignee's laboratory following standard cloning and purification techniques). […] Substrate (I) was purchased from Baychem (Redwood City, Calif.), and substrate II was prepared Assignee's laboratory. Substrate I was used in the IC50 determination assays, while substrate II was used in the Ki determination assays. In the absence of MMP inhibitory activity, either substrate is cleaved at the Gly-Leu peptide bond. […] The stock solutions of the assayed hydroxamic acids (or salts thereof) were prepared in 1% dimethyl sulfoxide (DMSO). […] The experiment controls contained the same amount of Buffer A/DMSO as the assayed sample, but contained no hydroxamic acid (or salt thereof). The assays from which the IC50 determinations were made were performed as follows. […] Louis, Mo.). The assayed hydroxamic acid samples were incubated in MicrofluorTM White Plates (Dynatech, Chantilly, Va.) and analyzed on a Perkin Elmer […] plate reader (Norwalk, Conn.). The excitation wavelength was 328 nm, and the emission wavelength-415 nm. […] As stated in the previous paragraph, samples containing varying concentrations of the same assayed hydroxamic acid were prepared. Inhibition was measured as a reduction in fluorescent intensity as a function of MMP inhibitor concentration. […] All values in Table 2 are given in nM units. The IC50 measurements are in parenthesis.

MMP-13 = target: T2, MMP-13 (Homo sapiens, UniProt P45452); test: as above; format: biochemical; details: values in parenthesis; 4 μM substrate I; room temperature
T2 construct: made in house; host or cells: baculovirus / insect cells
Procedure: Several hydroxamic acids and salts thereof were analyzed in in vitro assays to determine their ability to inhibit the MMP cleavage of peptide substrates. […] and IC50 constants were calculated from the assayed hydroxamic acid-MMP interactions.
Human recombinant MMP-1, MMP-2, MMP-9, MMP-13, and MMP-14 were used in this assay. All enzymes were prepared in Assignee's laboratories following usual laboratory procedures. Protocols for the preparation and use of these enzymes are available in the scientific literature. See, e.g., Enzyme Nomenclature (Academic Press, San Diego, Calif., 1992) (and the citations therein). See also, Freije et al., “Molecular cloning and expression of collagenase-3, a novel human matrix metalloproteinase produced by breast carcinomas,” J Biol. Chem., 269(24), 16766-16773 (1994).
The MMP-13 was obtained as a proenzyme from a full-length cDNA clone using baculovirus, as described by V. A. Luckow, “Insect Cell Expression Technology,” Protein Engineering: Principles and Practice, pp. 183-218 (edited by J. L. Cleland et al., Wiley-Liss, Inc., 1996). The expressed proenzyme was first purified over a heparin agarose column, and then over a chelating zinc chloride column. The proenzyme was then activated by APMA for use in the assay. Further details on baculovirus expression systems may be found in, for example, Luckow et al., J. Virol., 67, 4566-79 (1993). See also, O'Reilly et al, Baculovirus Expression Vectors: A Laboratory Manual (W.H. Freeman and Co., New York, N.Y., 1992). See also, King et al., The Baculovirus Expression System: A Laboratory Guide (Chapman & Hall, London, England, 1992).
All MMPs were activated using 4-aminophenylmercuric acetate (“APMA”, Sigma Chemical, St. Louis, Mo.) or trypsin. MMP-9 also was activated using human recombinant MMP-3 (purified in Assignee's laboratory following standard cloning and purification techniques).
Two fluorogenic, methoxycoumarin-containing polypeptide substrates were used in the MMP inhibition assays: [drawing 427] Here, “Dpa” is 3-(2,4-dinitrophenyl)-L-2,3-diaminopropionyl group, and “MCA” is 7-methoxycoumarin-4-yl acetyl. Substrate (I) was purchased from Baychem (Redwood City, Calif.), and substrate II was prepared Assignee's laboratory. Substrate I was used in the IC50 determination assays, while substrate II was used in the Ki determination assays. In the absence of MMP inhibitory activity, either substrate is cleaved at the Gly-Leu peptide bond. This cleavage separates the highly fluorogenic peptide from the 2,4-dinitrophenyl quencher, thus resulting in increase of fluorescent intensity.
The stock solutions of the assayed hydroxamic acids (or salts thereof) were prepared in 1% dimethyl sulfoxide (DMSO). These stock solutions were diluted in Buffer A (100 mM Tris-HCl, 100 mM NaCl, 10 mM CaCl2, 0.05% polyoxyethylene 23 lauryl ether, pH 7.5) to obtain solutions with different hydroxamic acid concentrations, i.e., assay solutions with different concentrations of the assayed MMP inhibitory compound. The experiment controls contained the same amount of Buffer A/DMSO as the assayed sample, but contained no hydroxamic acid (or salt thereof).
The assays from which the IC50 determinations were made were performed as follows. The MMPs were activated with either trypsin or APMA (4-aminophenylmercuric acetate, Sigma Chemical, St. Louis, Mo.). The assayed hydroxamic acid samples were incubated in Microfluor™ White Plates (Dynatech, Chantilly, Va.) and analyzed on a Perkin Elmer L550 plate reader (Norwalk, Conn.). The excitation wavelength was 328 nm, and the emission wavelength—415 nm. All samples (assayed hydroxamic acids and controls) were incubated in separate plates at room temperature in the presence of 4 μM of MMP substrate (I). As stated in the previous paragraph, samples containing varying concentrations of the same assayed hydroxamic acid were prepared. Inhibition was measured as a reduction in fluorescent intensity as a function of MMP inhibitor concentration. […]

| Compound | pIC50 (MMP-14) | pIC50 (MMP-13) |
| --- | --- | --- |
| CCCCc1ccc(N2CCN(S(=O)(=O)C3(C(=O)NO)CCN(CCOC)CC3)CC2)cc1 [Example 5, 4-{[4-(4-butylphenyl)piperazin-1-yl]sulfonyl}-N-hydroxy-1-(2-methoxyethyl)piperidine-4-carboxamide Dihydrochloride] | 5.34 | > 10.00 |
| CCCCCc1ccc(N2CCN(S(=O)(=O)C3(C(=O)NO)CCN(CCOC)CC3)CC2)cc1 [Example 6, N-Hydroxy-1-(2-methoxyethyl)-4-{[4-(4-pentylphenyl)piperazin-1-yl]sulfonyl}piperidine-4-carboxamide Dihydrochloride] | < 5.00 | 10.00 |
| O=C(NO)C1(S(=O)(=O)N2CCN(c3ccc(OCC4CC4)c(F)c3)CC2)CCN(C2CC2)CC1 [Example 10, 1-cyclopropyl-4-[[4-[4-(cyclopropylmethoxy)-3-fluorophenyl]-1-piperazinyl]sulfonyl]-N-hydroxy-4-piperidinecarboxamide, dihydrochloride] | 5.23 | 8.89 |
| CCCCOc1ccc(N2CCN(S(=O)(=O)C3(C(=O)NO)CCN(CCOC)CC3)CC2)cc1F [Example 11, 4-[[4-(4-butoxy-3-fluorophenyl)-1-piperazinyl]sulfonyl]-N-hydroxy-1-(2-methoxyethyl)-4-piperidinecarboxamide, Dihydrochloride] | 5.15 | 9.10 |
| CCCCCc1ccc(C2CCN(S(=O)(=O)C3(C(=O)NO)CCN(CCOC)CC3)CC2)cc1 [Example 15, N-hydroxy-1-(2-methoxyethyl)-4-{[4-(4-pentylpheyl)piperidin-1-yl]sulfonyl}piperidine-4-carboxamide Hydrochloride] | 5.21 | 10.00 |
